# Paper PMC9801504, “Stable Isotopomers of myo-Inositol Uncover a Complex MINPP1-Dependent Inositol Phosphate Network” (ACS Central Science, 2022)
# Target: T1, MINPP1 (Homo sapiens, UniProt Q9UNW1)
# T1 construct: recombinant, expressed in and purified from E. coli; borders and tags only in the supplement
# T1 sequence (Q9UNW1 31-487): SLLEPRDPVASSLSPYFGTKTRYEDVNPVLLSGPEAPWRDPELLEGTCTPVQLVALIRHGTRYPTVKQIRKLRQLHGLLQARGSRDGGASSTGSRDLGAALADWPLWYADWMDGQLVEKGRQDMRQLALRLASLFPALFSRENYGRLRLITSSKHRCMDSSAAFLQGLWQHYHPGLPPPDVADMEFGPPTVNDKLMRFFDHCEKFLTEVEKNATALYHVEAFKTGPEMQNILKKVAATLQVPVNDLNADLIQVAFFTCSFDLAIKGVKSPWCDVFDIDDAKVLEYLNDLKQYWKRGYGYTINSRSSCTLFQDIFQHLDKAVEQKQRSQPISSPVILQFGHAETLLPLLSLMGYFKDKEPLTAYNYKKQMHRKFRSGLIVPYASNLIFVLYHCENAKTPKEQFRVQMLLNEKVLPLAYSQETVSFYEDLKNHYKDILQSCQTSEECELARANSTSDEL
# Experiment: 2D NMR of dephosphorylation of [[…]6]InsP5[2OH]
# Format: biochemical
# Settings: read-out: apparent IC50
smiles,measurement,value
O=P(O)(O)O[C@H]1[C@H](OP(=O)(O)O)[C@@H](OP(=O)(O)O)[C@H](OP(=O)(O)O)[C@@H](OP(=O)(O)O)[C@H]1OP(=O)(O)O [InsP6],IC50,2 µM
